Target: T1, mGluR2 receptor (metabotropic glutamate receptor 2) (Homo sapiens, UniProt Q14416)
T1 construct: expressed in transfected cells
Experiment: mGluR2 potentiator screen (FLIPR, EC10-EC20 glutamate challenge);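 also: HEK cells stably expressing human mGluR2 with GL15 G protein, Fluo-4 calcium fluorescence read on FLIPR, compounds added before an EC10-EC20 glutamate challenge to detect potentiation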
Assay type: cell-based
Settings: geometric mean; read-out: mGluR 2 EC50 (geometric mean)

T1 sequence (Q14416 19-872, species assumed): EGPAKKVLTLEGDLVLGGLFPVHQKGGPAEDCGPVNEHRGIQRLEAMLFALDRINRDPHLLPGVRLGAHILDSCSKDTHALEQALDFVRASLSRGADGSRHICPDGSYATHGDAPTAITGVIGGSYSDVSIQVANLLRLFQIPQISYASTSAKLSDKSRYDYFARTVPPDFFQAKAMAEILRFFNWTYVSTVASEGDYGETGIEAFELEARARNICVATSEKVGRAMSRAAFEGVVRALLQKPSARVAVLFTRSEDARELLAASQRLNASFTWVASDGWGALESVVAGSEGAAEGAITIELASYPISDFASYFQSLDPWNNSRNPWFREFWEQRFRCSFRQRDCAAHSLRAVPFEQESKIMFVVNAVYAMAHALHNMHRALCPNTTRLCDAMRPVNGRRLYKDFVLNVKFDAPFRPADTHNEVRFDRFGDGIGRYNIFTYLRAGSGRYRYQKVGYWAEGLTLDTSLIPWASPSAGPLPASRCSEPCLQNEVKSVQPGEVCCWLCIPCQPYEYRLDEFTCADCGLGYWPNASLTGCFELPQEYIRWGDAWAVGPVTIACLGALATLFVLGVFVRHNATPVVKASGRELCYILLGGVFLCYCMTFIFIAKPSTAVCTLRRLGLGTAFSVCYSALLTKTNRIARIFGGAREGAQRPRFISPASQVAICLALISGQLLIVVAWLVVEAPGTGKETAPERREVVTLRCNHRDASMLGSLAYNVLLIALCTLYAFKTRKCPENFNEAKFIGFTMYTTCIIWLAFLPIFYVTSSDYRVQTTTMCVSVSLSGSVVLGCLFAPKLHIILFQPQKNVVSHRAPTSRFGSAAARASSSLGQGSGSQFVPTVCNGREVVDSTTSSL

For `C[C@@H]1CN(Cc2ccc(O[C@H](C)c3ccccc3)cc2)C(=O)O1` [Example 67, (5R)-5-methyl-3-{4-[(1R)-1-phenylethoxy]benzyl}-1,3-oxazolidin-2-one], the EC50 was 240 nM.
`Cc1ccc(-c2ccc(CN3C[C@@H](C)OC3=O)cc2)c(F)c1` [Example 232] was tested, and the EC50 was < 39.2 nM.
`O=C1OCCN1Cc1ccc(OCCC2CCCCC2)cc1` [Example 11] gave an EC50 of 699 nM.
`CC(C)Oc1ccc(-c2ccc(CN3C[C@@H](C)OC3=O)cc2)c(F)c1` [Example 281] was tested, and the EC50 was 8.14 nM.
Compound `C[C@H]1CN(Cc2ccc(O[C@H](C)c3ccccc3)cc2)C(=O)O1` [Example 68] has an EC50 of 299 nM.
`Cc1ccc(F)c(COc2ccc(CN3CC(C)OC3=O)cc2)c1` (stereo not shown) [Example 150] was tested, and the EC50 was 101 nM.
With `Cc1cc(F)ccc1-c1ccc(CN2C[C@@H](C)OC2=O)cc1F` [Example 290] the EC50 was 130 nM.
With `C[C@@H]1CN(Cc2ccc(-c3ccc(F)cc3F)cc2F)C(=O)O1` [Example 249, (5R)-5-methyl-3-[(2′,3,4′-trifluorobiphenyl-4-yl)methyl]-1,3-oxazolidin-2-one] the EC50 was < 28.4 nM.
In the case of `Cc1cc(-c2ccc(CN3C[C@@H](C)OC3=O)cn2)ccc1F` [Example 271], the EC50 is reported as 475 nM.
For `CC1CN(Cc2ccc(OCc3ccc(C#N)cc3)cc2)C(=O)O1` (stereo not shown) [Example 124], the EC50 was 827 nM.
Compound `C[C@@H]1CN(Cc2ccc(-c3ccc(Cl)c(Cl)c3)cc2)C(=O)O1` [Example 182] has an EC50 of 74.6 nM.
Compound `C[C@@H]1CN(Cc2ccc3c(c2)CCC(C)(C)O3)C(=O)O1` [Example 87, (5R)-3-[(2,2-Dimethyl-3,4-dihydro-2H-chromen-6-yl)methyl]-5-methyl-1,3-oxazolidin-2-one] has an EC50 of 1380 nM.
`C[C@@H]1CN(Cc2ccc(-c3cccc4cnccc34)cc2)C(=O)O1` [Example 162] showed an EC50 of 42 nM.
Work on `CC1CN(Cc2ccc(OCCCn3ccc4ccccc43)cc2)C(=O)O1` (stereo not shown) [Example 149] yielded an EC50 of 35.8 nM.
`C[C@@H]1CN(Cc2ccc(OCCCOc3ccc(F)cc3)cc2)C(=O)O1` [Example 206] showed an EC50 of 29.9 nM.
Work on `CC(Oc1ccc(CN2CCN(C3CC[C@@H](C)C3)CC2=O)cc1)C1CCCCC1` (stereo partly shown) [Example 224] yielded an EC50 of 1100 nM.
For `CC(Oc1ccc(CN2CCN(C(C)CC3CC3)CC2=O)cc1)C1CCCCC1` (stereo not shown) [Example 219], the EC50 was 697 nM.
`CC1CN(Cc2ccc(OCCCOc3ccc(F)cc3)cc2)C(=O)O1` (stereo not shown) [Example 152] gave an EC50 of 46 nM.
For `C[C@@H]1CN(Cc2ccc(-c3nc(C(C)(C)C)cs3)cc2)C(=O)O1` [Example 183], the EC50 was 150 nM.

From patent US20090137577A1, “HETEROCYCLIC COMPOUNDS” (Pfizer Inc., priority 2007, published 2009)
